Measured values: ChEMBL document CHEMBL1131862, “Synthesis and anti-HIV activity of arylpiperazinyl fluoroquinolones: a new class of anti-HIV agents” (Bioorg Med Chem Lett, 1999)

Experiments:
[1] = test system: Human immunodeficiency virus 1; experiment: Cytotoxicity to HIV-1 IIIB chronically infected Molt-4 cells assayed using tetrazolium based colorimetric assay; format: functional; conditions: Human immunodeficiency virus 1, MOLT-4
[2] = test system: Human immunodeficiency virus 1; experiment: Anti-HIV activity against HIV-1 IIIB chronically infected Molt-4 cells; format: functional, organism-based; conditions: Human immunodeficiency virus 1, MOLT-4
MOLT-4 = experiment: Anti-HIV activity against HIV-1 IIIB chronically infected Molt-4 cells; Not active; format: functional, cell-based, Homo sapiens

SMILES: O=C(O)c1cn(C2CC2)c2c(OC(F)F)c(N3CCNCC3)c(F)cc2c1=O
- CC50 [1]: > 60 µM
- IC50 [2]: > 60 µM

SMILES: COc1ccccc1N1CCN(c2c(F)cc3c(=O)c(C(=O)O)cn(CCO)c3c2OC(F)F)CC1
- CC50 [1]: 26 µM
- IC50 [2]: 0.26 µM

SMILES: COc1ccccc1N1CCN(c2c(F)cc3c(=O)c(C(=O)O)cn(C(C)C)c3c2OC(F)F)CC1
- CC50 [1]: 8.9 µM
- IC50 [2]: 0.1 µM

SMILES: CCn1cc(C(=O)O)c(=O)c2cc(F)c(N3CCN(c4ccccc4OC)CC3)c(OC(F)F)c21
- CC50 [1]: 13 µM
- IC50 [2]: 0.094 µM

SMILES: CNn1cc(C(=O)O)c(=O)c2cc(F)c(N3CCN(c4ncccn4)CC3)c(OC(F)F)c21
- CC50 [1]: > 60 µM
- IC50 [2]: 0.5 µM

SMILES: CC(C)n1cc(C(=O)O)c(=O)c2cc(F)c(N3CCN(c4ncccn4)CC3)c(OC(F)F)c21
- CC50 [1]: 31 µM
- IC50 [2]: 0.23 µM

SMILES: CC1COc2c(N3CCN(c4ccccn4)CC3)c(F)cc3c(=O)c(C(=O)O)cn1c23 (stereo not given)
- CC50 [1]: 39 µM
- IC50 [2]: 3.7 µM

SMILES: O=C(O)c1cn(C2CC2)c2c(OC(F)F)c(N3CCN(c4ccccn4)CC3)c(F)cc2c1=O
- CC50 [1]: 15 µM
- IC50 [2]: 0.25 µM

SMILES: COc1ccccc1N1CCN(c2c(F)cc3c(=O)c(C(=O)O)cn(CCN(C)C)c3c2OC(F)F)CC1
- CC50 [1]: > 55 µM
- IC50 [2]: 5.6 µM

SMILES: Cn1cc(C(=O)O)c(=O)c2cc(F)c(N3CCN(c4ncccn4)CC3)c(OC(F)F)c21
- CC50 [1]: 38 µM
- IC50 [2]: 0.14 µM

SMILES: COc1cccc(N2CCN(c3c(F)cc4c(=O)c(C(=O)O)cn(C5CC5)c4c3OC(F)F)CC2)c1
- CC50 [1]: 22 µM
- IC50 [2]: 0.7 µM

SMILES: O=C(O)c1cn(C2CC2)c2c(OC(F)F)c(N3CCN(c4ncccn4)CC3)c(F)cc2c1=O
- CC50 [1]: > 40 µM
- IC50 [2]: 0.97 µM

SMILES: O=C(O)c1cn(C2CC2)c2c(OC(F)F)c(N3CCN(Cc4ccccc4)CC3)c(F)cc2c1=O
- CC50 [1]: 23 µM
- IC50 (MOLT-4): Not Active

SMILES: O=C(O)c1cn(C2CC2)c2c(OC(F)F)c(N3CCN(c4ccccc4)CC3)c(F)cc2c1=O
- CC50 [1]: 8.4 µM
- IC50 [2]: 0.063 µM

SMILES: COc1ccccc1N1CCN(c2c(F)cc3c(=O)c(C(=O)O)cn(C)c3c2OC(F)F)CC1
- CC50 [1]: 13 µM
- IC50 [2]: 0.14 µM

SMILES: O=C(O)c1cn(C2CC2)c2c(F)c(N3CCN(c4ccccn4)CC3)c(F)cc2c1=O
- CC50 [1]: > 50 µM
- IC50 [2]: 50 µM

SMILES: CNn1cc(C(=O)O)c(=O)c2cc(F)c(N3CCN(c4ccccc4OC)CC3)c(OC(F)F)c21
- CC50 [1]: 19 µM
- IC50 [2]: 0.35 µM

SMILES: O=C(O)c1cn(C2CC2)c2c(OC(F)F)c(N3CCN(c4ccc(F)cc4)CC3)c(F)cc2c1=O
- CC50 [1]: 5.7 µM
- IC50 [2]: 0.059 µM

SMILES: COc1ccccc1N1CCN(c2c(F)cc3c(=O)c(C(=O)O)cn(CCF)c3c2OC(F)F)CC1
- CC50 [1]: 22 µM
- IC50 [2]: 0.27 µM

SMILES: CN1CCN(c2c(F)cc3c(=O)c(C(=O)O)cn(C4CC4)c3c2OC(F)F)CC1
- CC50 [1]: > 60 µM
- IC50 [2]: > 60 µM

SMILES: COc1ccc(N2CCN(c3c(F)cc4c(=O)c(C(=O)O)cn(C5CC5)c4c3OC(F)F)CC2)cc1
- CC50 [1]: 17 µM
- IC50 [2]: 0.6 µM

SMILES: O=C(O)c1cn(CCO)c2c(OC(F)F)c(N3CCN(c4ncccn4)CC3)c(F)cc2c1=O
- CC50 [1]: > 60 µM
- IC50 [2]: 0.79 µM

SMILES: O=C(O)c1cn(C2CC2)c2c(OC(F)F)c(N3CCN(c4ccc(Cl)cc4)CC3)c(F)cc2c1=O
- CC50 [1]: 5.8 µM
- IC50 [2]: 0.48 µM

SMILES: COc1ccccc1N1CCN(c2c(F)cc3c(=O)c(C(=O)O)cn(CC(=O)O)c3c2OC(F)F)CC1
- CC50 [1]: > 55 µM
- IC50 [2]: > 55 µM

SMILES: COc1c(N2CCN(c3ccccn3)CC2)c(F)cc2c(=O)c(C(=O)O)cn(C3CC3)c12
- CC50 [1]: 26 µM
- IC50 [2]: 1.8 µM

SMILES: COc1ccccc1N1CCN(c2c(F)cc3c(=O)c(C(=O)O)cn(CCOC(C)=O)c3c2OC(F)F)CC1
- CC50 [1]: 11 µM
- IC50 [2]: 0.1 µM

SMILES: O=C(O)c1cn2c3c(c(N4CCN(c5ccccn5)CC4)c(F)cc3c1=O)OCC2CF (stereo not given)
- CC50 [1]: > 60 µM
- IC50 [2]: 1.7 µM

SMILES: COc1ccccc1N1CCN(c2c(F)cc3c(=O)c(C(=O)O)cn(C4CC4)c3c2OC(F)F)CC1
- CC50 [1]: 9.9 µM
- IC50 [2]: 0.11 µM

SMILES: O=C(O)c1cn(CCF)c2c(OC(F)F)c(N3CCN(c4ncccn4)CC3)c(F)cc2c1=O
- CC50 [1]: > 60 µM
- IC50 [2]: 0.93 µM

SMILES: CCn1cc(C(=O)O)c(=O)c2cc(F)c(N3CCN(c4ncccn4)CC3)c(OC(F)F)c21
- CC50 [1]: 28 µM
- IC50 [2]: 0.41 µM
